Reference: paper PMC3362645, “The Sigma Class Glutathione Transferase from the Liver Fluke Fasciola hepatica” (PLoS Neglected Tropical Diseases, 2012)

target: T1, rFhGST-S1 (recombinant Fasciola hepatica Sigma class glutathione transferase) (Fasciola hepatica, UniProt Q06A71); test: inhibition of GSH-CDNB conjugation, spectrophotometric, graphical IC50; assay type: biochemical
T1 sequence (Q06A71 1-211): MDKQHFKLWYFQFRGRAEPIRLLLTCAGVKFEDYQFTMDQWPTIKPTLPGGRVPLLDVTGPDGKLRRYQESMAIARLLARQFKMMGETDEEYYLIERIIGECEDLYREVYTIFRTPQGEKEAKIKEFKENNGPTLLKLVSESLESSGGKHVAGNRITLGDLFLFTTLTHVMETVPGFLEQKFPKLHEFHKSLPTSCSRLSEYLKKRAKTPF

SMILES | IC50
C[S+]([O-])c1nc2cc(Cl)c(Oc3cccc(Cl)c3Cl)cc2[nH]1 (stereo not shown) [TCBZ SO, sulphoxide derivative of Triclabendazole] | 57 ± 5 µM
C[C@H](CCC(=O)O)[C@H]1CC[C@H]2[C@@H]3CC[C@@H]4C[C@H](O)CC[C@]4(C)[C@H]3C[C@H](O)[C@]12C [Deoxycholic acid] | 223 ± 21 µM
C[C@H](CCC(=O)O)[C@H]1CC[C@H]2[C@@H]3[C@H](O)C[C@@H]4C[C@H](O)CC[C@]4(C)[C@H]3CC[C@]12C [Chenodeoxycholic acid] | 64 ± 9 µM
C[C@H](CCC(=O)O)[C@H]1CC[C@H]2[C@@H]3[C@H](O)C[C@@H]4C[C@H](O)CC[C@]4(C)[C@H]3C[C@H](O)[C@]12C [Cholic acid] | 302 ± 73 µM
